Measured values from patent US11596644B2, “Method for treating post-prandial hypoglycemia” (AVOLYNT, priority 2018, dated 2023).
Marks after values point to notes of the source that are not given here.

Columns and labels:
[1] = tested on: normal Sprague Dawley rats; assay: Mixed carbohydrate tolerance test in normal rats; type: in vivo, rat
Protocol: Study on normal rats. The efficacy of mizagliflozin (decreasing plasma glucose levels) in normal Sprague Dawley rats was determined in a mixed carbohydrate tolerance test. Normal rats were fasted for 16 hours and then given an oral loading dose of 2.0 g/kg of mixed carbohydrate (soluble starch:sucrose:lactose monohydrate=6:3:1). Mizagliflozin (KGA-3235 sebacate), or water as the vehicle control, was then administered as a single oral dose to groups of male rats (n=8/group) at doses of 0.03, 0.1, 0.3, and 1 mg/kg. Voglibose, a glucosidase inhibitor similar to acarbose, was used as a positive control and was administered as a single oral dose to male rats (n=8/group) at dose levels of 0.1, 0.3 and 1 mg/kg. Blood samples were collected just prior to loading with mixed carbohydrate and at 0.5, 1, 2, 3, 4, and 6 hours after loading.

[2] = tested on: STZ-induced diabetic rats; assay: Mixed carbohydrate tolerance test in STZ-induced diabetic rats (Example 3); type: in vivo, rat
Protocol: Study in diabetic rats. Mizagliflozin was tested in a rat model for diabetes and efficacy, as measured by a relative decrease in plasma glucose, was determined using a mixed carbohydrate tolerance test. Diabetic model rats were prepared by intravenous administration of streptozotocin (STZ) to induce diabetes. Seven days after STZ administration, rats were fasted for 16 hours and then given an oral loading dose of 2.0 g/kg of mixed carbohydrate (soluble starch:sucrose:lactose monohydrate=6:3:1). Mizagliflozin, or water as the vehicle control, was then administered as a single oral dose to groups of male rats (n=8/group) at doses of 0.01, 0.03, 0.1, and 0.3 mg/kg. Another control group was given vehicle and consisted of normal male Sprague Dawley rats that were not administered STZ. Voglibose was also administered as a single oral dose to male rats (n=8/group) at dose levels of 0.03, 0.1 and 0.3 mg/kg. Blood samples were collected just prior to loading with mixed carbohydrate and at 0.5, 1, 2, 3, 4, and 6 hours after loading. Plasma glucose concentrations were determined and ΔAUC0-1 h for plasma glucose was calculated.

[3] = tested on: STZ-induced diabetic rats; assay: Oral glucose tolerance test in STZ-induced diabetic rats (Example 4); type: in vivo, rat
Protocol: Study in diabetic rats using oral glucose tolerance test. Efficacy of mizagliflozin was tested in a rat model for diabetes using an oral glucose tolerance test (OGTT). Diabetic model rats were prepared by intravenous administration of STZ to induce diabetes. Seven days after STZ administration, rats were fasted for 16 hours and then given an oral loading dose of 2.0 g/kg of glucose. Mizagliflozin, or water as the vehicle control, was then administered as a single oral dose to groups of male rats (n=8/group) at doses of 0.03, 0.1, 0.3, and 1 mg/kg. Another control group was given vehicle and consisted of normal male Sprague Dawley rats that were not administrated STZ. Voglibose was also administered as a single oral dose to male rats (n=8/group) at dose levels of 0.1, 0.3 and 1 mg/kg. Blood samples were collected just prior to loading with mixed carbohydrate and at 0.5, 1, 2, 3, 4, and 6 hours after loading. Plasma glucose concentrations were determined and ΔAUC0-1 h for plasma glucose was calculated.

[4] = tested on: Diet-induced obese (DIO) marmoset; assay: Two-week dosing and OGTT in diet-induced obese marmosets; type: in vivo
Protocol: Study on plasma glucose levels in marmosets. Mizagliflozin was evaluated in the Diet-induced obese (DIO) marmoset, a polygenic non-human primate model of obesity. Rimonabant, a canabinoid receptor (CB-1) antagonist that was marketed by Sanofi-Aventis for weight loss in obese patients, was administered at a maximal effective dose of 20 mg/kg twice daily as a positive control. Mizagliflozin was administered orally twice daily to DIO male marmosets (n=8/group) for 2 weeks at BID doses of 3 and 30 mg/kg/day (or only vehicle, aqueous hydroxypropylmethyl-cellulose 0.1%). Effects on body weight and body composition, and serum chemistry parameters were measured and glucose excursions during post-treatment OGTTs were also determined after administration of an oral loading dose of glucose (2.0 g/kg).

[5] = tested on: STZ-induced diabetic rats; assay: OGTT in STZ-induced diabetic rats (Example 8); type: in vivo, rat; settings: for Plasma glucose 0 hr: before dosing; for Plasma glucose 0 hr / Plasma glucose 0.5 hr / Plasma glucose 1 hr / Plasma glucose 2 hr / Plasma glucose 3 hr / ΔAUC (0-1) / ΔAUC (0-1) (% of Control): glucose 2 g/kg, mean ± S.E.M.
Protocol: Study in diabetic rats with glucose. Diabetic rats, induced by intravenous injection of streptozotocin (STZ; 40 mg/kg), were used to determining plasma glucose concentration (PG) 1 hr after oral glucose tolerance test (OGTT). […] Blood was collected via the caudal artery immediately before dosing and 0.5, 1, 2, and 3 hr after dosing. The glucose concentration measurement in plasma used Glucose CII-Test Wako kit (Wako Pure Chemicals Industries, Ltd., Osaka, Japan). The variables used for efficacy assessment were the measurement values of the plasma glucose concentration and the area under the curve for plasma glucose concentration through 1 hr after loading (ΔAUC0-1 hr). The ΔAUC0-1 hr for plasma glucose was calculated based on the trapezoid method using the change of plasma glucose concentrations from pre-value (0 hr).

[6] = Oral pharmacokinetics and excretion in rats; type: in vivo, rat
Excerpt: Accordingly, the SGLT1 inhibitor compounds of Formula I or Formula II are locally acting in the gut, and have poor systemic exposure. […] Systemic exposure (e.g., Cmax) can be measured by methods well known in the art, including liquid chromatography mass spectrometry.

[7] = Rattus norvegicus, read-out: ED50 calculated from mean ΔAUC0-1 h (% of control), mixed carbohydrate 2.0 g/kg, single oral dose

In the case of Cc1cc(OCCCNCC(C)(C)C(N)=O)ccc1Cc1c(O[C@@H]2O[C@H](CO)[C@@H](O)[C@H](O)[C@H]2O)n[nH]c1C(C)C [mizagliflozin, 3-(3-{4-[3-(β-D-glucopyranosyloxy)-5-isopropyl-1H-pyrazol-4-ylmethyl-]-3-methylphenoxy}propylamino)-2,2-dimethylpropionamide], the ED50 [1, 7] is reported as 0.13 mg/kg, the “ΔAUC0-1 h of plasma glucose versus vehicle control” value ([1]; mixed carbohydrate 2.0 g/kg) is reported as “significantly lowered” and the ED50 [2, 7] is reported as 0.096 mg/kg. For the same compound, the “ΔAUC0-1 h of plasma glucose versus vehicle control” value ([2]; mixed carbohydrate 2.0 g/kg) was “significantly lowered”, the ED50 ([3]; Rattus norvegicus, read-out: ED50 calculated from mean ΔAUC0-1 h (% of control), glucose 2.0 g/kg, single oral dose) was 0.099 mg/kg and the “ΔAUC0-1 h of plasma glucose versus vehicle control” value ([3]; glucose 2.0 g/kg) was “significantly lowered”. The signs of diarrhea ([4]; 2 weeks dosing) was “No signs of diarrhea were observed”, the “effects on body weight, body composition (fat or lean mass) and serum chemistry parameters” value ([4]; 3 and 30 mg/kg, oral twice daily, 2 weeks) was “no significant effects” and the “glucose excursions during post-treatment OGTT” value ([4]; two weeks dosing, glucose 2.0 g/kg) was “blunting of the glucose excursions”. The “Plasma glucose 0 hr” value ([5]; 0.03 mg/kg oral) was 128 ± 10 mg/dL, the “Plasma glucose 0.5 hr” value ([5]; 0.03 mg/kg oral) was 356 ± 25 mg/dL and the “Plasma glucose 1 hr” value ([5]; 0.03 mg/kg oral) was 371 ± 33 mg/dL. The “Plasma glucose 2 hr” value ([5]; 0.03 mg/kg oral) was 172 ± 29 mg/dL, the “Plasma glucose 3 hr” value ([5]; 0.03 mg/kg oral) was 91 ± 12 mg/dL and the “ΔAUC (0-1)” value ([5]; 0.03 mg/kg oral) was 174 ± 17 mg·h/dL. The “ΔAUC (0-1) (% of Control)” value ([5]; 0.03 mg/kg oral) was 90 ± 9 % of Control, the “Plasma glucose 0 hr” value ([5]; 0.1 mg/kg oral) was 120 ± 12 mg/dL and the “Plasma glucose 0.5 hr” value ([5]; 0.1 mg/kg oral) was 262 ± 27^y mg/dL. The “Plasma glucose 1 hr” value ([5]; 0.1 mg/kg oral) was 305 ± 43 mg/dL, the “Plasma glucose 2 hr” value ([5]; 0.1 mg/kg oral) was 238 ± 53 mg/dL and the “Plasma glucose 3 hr” value ([5]; 0.1 mg/kg oral) was 137 ± 26 mg/dL. For the same compound, the “ΔAUC (0-1)” value ([5]; 0.1 mg/kg oral) was 117 ± 18^x mg · dL^−1 · hr, the “ΔAUC (0-1) (% of Control)” value ([5]; 0.1 mg/kg oral) was 60 ± 9^x % of Control and the “PG elevation after glucose administration” value ([5]; 0.03 and 0.1 mg/kg oral, OGTT 2 g/kg) was “inhibited PG elevation after glucose administration dose dependently”. For the same compound, the bioavailability ([6]; male, rat, plasma, po) was 0.01 to 0.08%, the “Cmax and AUCt versus dose” value ([6]; oral 3, 10 and 30 mg/kg, fasted male rats) was “increased with dose, but not in a clear dose proportional manner” and the “excreted in the feces” value ([6]; rats, oral dosing) was > 97 % of orally administered dose.
